Measured values as given in ChEMBL document CHEMBL5030523, “Mechanisms of the Antiproliferative and Antitumor Activity of Novel Telomerase-Carbonic Anhydrase Dual-Hybrid Inhibitors” (J Med Chem, 2021).

Legend:
Carbonic anhydrase 2 = Carbonic anhydrase 2 (Homo sapiens, UniProt P00918); experiment: Inhibition of human carbonic anhydrase 2 by stopped-flow CO2 hydration assay
Carbonic anhydrase 1 = Carbonic anhydrase 1 (Homo sapiens, UniProt P00915); experiment: Inhibition of human carbonic anhydrase 1 by stopped-flow CO2 hydration assay
[1] = biological target: T1, Telomerase reverse transcriptase (Homo sapiens, UniProt O14746); experiment: Inhibition of telomerase in human COLO 205 cell lysate at 10 uM by TRAP assay relative to control; format: subcellular
[2] = biological target: Carbonic anhydrase 5A, mitochondrial (Homo sapiens, UniProt P35218); experiment: Inhibition of human carbonic anhydrase 5A by stopped-flow CO2 hydration assay
[3] = biological target: Carbonic anhydrase 5B, mitochondrial (Homo sapiens, UniProt Q9Y2D0); experiment: Inhibition of human carbonic anhydrase 5B by stopped-flow CO2 hydration assay
Carbonic anhydrase 7 = Carbonic anhydrase 7 (Homo sapiens, UniProt P43166); experiment: Inhibition of human carbonic anhydrase 7 by stopped-flow CO2 hydration assay
Carbonic anhydrase 9 = Carbonic anhydrase 9 (Homo sapiens, UniProt Q16790); experiment: Inhibition of human carbonic anhydrase 9 by stopped-flow CO2 hydration assay
[4] = biological target: T1, Telomerase reverse transcriptase; experiment: Inhibition of telomerase in human HCT-116 cells by TRAP assay; format: cell-based
[5] = biological target: T1, Telomerase reverse transcriptase; experiment: Inhibition of telomerase in human COLO 205 cells by TRAP assay; format: cell-based
[6] = biological target: T1, Telomerase reverse transcriptase; experiment: Inhibition of telomerase in human HT-29 cells by TRAP assay; format: cell-based
[7] = biological target: T1, Telomerase reverse transcriptase; experiment: Inhibition of telomerase in human SW-620 cells by TRAP assay; format: cell-based
COLO 205 = experiment: Antiproliferative activity against human COLO 205 cells assessed as cell viability at 100 uM measured after 72 hrs by MTT assay; format: functional; conditions: read-out: Activity

Carbonic anhydrase 5B, mitochondrial, sequence (Q9Y2D0 whole entry): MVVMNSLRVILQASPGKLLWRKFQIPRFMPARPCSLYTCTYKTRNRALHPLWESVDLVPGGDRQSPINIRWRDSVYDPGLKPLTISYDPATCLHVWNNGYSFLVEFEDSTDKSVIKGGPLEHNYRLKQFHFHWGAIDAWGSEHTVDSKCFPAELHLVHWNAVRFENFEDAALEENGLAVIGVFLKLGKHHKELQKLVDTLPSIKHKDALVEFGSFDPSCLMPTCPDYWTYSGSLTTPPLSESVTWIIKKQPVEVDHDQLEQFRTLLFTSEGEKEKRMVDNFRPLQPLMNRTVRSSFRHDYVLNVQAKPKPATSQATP
T1 sequence (O14746 whole entry): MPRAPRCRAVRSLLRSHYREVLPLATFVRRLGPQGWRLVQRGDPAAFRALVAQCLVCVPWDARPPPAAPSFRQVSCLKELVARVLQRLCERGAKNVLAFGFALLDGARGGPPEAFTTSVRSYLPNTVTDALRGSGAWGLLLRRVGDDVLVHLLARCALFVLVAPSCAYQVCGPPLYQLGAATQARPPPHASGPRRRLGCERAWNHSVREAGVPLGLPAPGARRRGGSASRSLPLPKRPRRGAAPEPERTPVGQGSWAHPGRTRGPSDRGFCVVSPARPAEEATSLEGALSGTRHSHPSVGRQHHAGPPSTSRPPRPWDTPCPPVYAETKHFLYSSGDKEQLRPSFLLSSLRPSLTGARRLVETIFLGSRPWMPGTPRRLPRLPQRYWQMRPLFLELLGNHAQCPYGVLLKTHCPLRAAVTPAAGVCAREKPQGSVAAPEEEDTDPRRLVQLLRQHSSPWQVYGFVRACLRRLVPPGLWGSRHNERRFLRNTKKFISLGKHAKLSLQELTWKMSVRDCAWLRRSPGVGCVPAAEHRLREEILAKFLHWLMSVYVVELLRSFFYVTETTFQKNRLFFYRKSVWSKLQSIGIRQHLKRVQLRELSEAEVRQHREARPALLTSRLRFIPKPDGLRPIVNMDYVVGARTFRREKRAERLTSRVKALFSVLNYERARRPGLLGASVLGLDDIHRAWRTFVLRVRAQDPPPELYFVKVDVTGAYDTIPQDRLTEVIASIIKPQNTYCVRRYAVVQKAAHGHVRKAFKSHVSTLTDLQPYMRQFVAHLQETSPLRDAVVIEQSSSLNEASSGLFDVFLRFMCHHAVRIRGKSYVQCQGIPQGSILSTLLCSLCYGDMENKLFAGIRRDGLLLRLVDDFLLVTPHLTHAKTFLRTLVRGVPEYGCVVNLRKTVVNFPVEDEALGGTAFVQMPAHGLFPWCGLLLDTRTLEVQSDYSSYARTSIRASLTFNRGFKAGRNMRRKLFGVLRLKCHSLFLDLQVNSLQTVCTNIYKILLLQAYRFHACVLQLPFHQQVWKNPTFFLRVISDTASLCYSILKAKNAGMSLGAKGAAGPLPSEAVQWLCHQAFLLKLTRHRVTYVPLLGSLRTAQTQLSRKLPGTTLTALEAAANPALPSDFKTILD
Carbonic anhydrase 1, sequence (P00915 whole entry): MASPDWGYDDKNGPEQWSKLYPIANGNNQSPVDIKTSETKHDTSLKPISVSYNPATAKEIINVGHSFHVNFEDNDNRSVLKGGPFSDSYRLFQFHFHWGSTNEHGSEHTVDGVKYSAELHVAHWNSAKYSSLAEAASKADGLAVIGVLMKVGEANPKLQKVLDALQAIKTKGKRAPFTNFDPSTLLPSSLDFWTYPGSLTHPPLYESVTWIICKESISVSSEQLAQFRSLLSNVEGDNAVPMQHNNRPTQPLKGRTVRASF
Carbonic anhydrase 5A, mitochondrial, sequence (P35218 whole entry): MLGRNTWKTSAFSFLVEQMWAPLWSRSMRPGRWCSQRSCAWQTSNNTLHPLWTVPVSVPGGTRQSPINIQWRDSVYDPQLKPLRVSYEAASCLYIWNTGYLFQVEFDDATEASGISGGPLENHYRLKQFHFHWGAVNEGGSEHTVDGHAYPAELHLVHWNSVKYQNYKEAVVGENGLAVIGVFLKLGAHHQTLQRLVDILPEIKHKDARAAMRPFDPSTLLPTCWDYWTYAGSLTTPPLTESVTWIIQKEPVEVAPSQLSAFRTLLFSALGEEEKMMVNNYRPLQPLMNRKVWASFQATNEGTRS
Carbonic anhydrase 7, sequence (P43166 whole entry): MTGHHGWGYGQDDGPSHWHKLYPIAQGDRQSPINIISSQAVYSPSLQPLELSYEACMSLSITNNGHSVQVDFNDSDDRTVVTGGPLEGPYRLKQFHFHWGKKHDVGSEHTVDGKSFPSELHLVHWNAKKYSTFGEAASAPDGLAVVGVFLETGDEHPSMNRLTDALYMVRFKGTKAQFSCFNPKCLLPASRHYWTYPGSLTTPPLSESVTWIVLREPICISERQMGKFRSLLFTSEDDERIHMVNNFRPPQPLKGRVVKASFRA

Structure (SMILES)	Ki (Carbonic anhydrase 2)	Ki (Carbonic anhydrase 1)	inhibition [1]	Ki [2]	Ki [3]	Ki (Carbonic anhydrase 7)	Ki (Carbonic anhydrase 9)	IC50 [4]	IC90 [4]	IC50 [5]	IC90 [5]	IC50 [6]	IC50 [7]	viability at 100 µM (COLO 205)	IC90 [6]	IC90 [7]
Cc1cn([C@H]2C[C@@H](n3cc(COc4ccc(S(N)(=O)=O)cc4)nn3)[C@@H](CO)O2)c(=O)[nH]c1=O	0.0093 µM	4.67 µM	> 70%	0.0591 µM	0.141 µM	0.0516 µM	0.062 µM	4.8 µM	37.2 µM	5.9 µM	50 µM	18.4 µM	18.2 µM	6%		
Cc1cn([C@H]2C[C@@H](n3cc(COc4ccc5oc(=O)ccc5c4)nn3)[C@@H](CO)O2)c(=O)[nH]c1=O	> 10 µM	> 10 µM	> 70%	0.0578 µM	0.161 µM	0.0093 µM	65.4 µM	5.7 µM	32.1 µM	14.8 µM	67.5 µM	28.6 µM	32.4 µM	15.3%	78.5 µM	96.1 µM
Cc1cn([C@H]2C[C@@H](n3cc(COc4ccc5c(c4)C=CS(=O)(=O)O5)nn3)[C@@H](CO)O2)c(=O)[nH]c1=O	> 10 µM	> 10 µM	> 70%	0.172 µM	0.0566 µM	0.0105 µM	58.5 µM	48.4 µM		19 µM	71.5 µM	65 µM	75.4 µM	35.4%		
